From patent US20180252705A1, “Myeloid Progenitor Cells in Kidney Disease” (Rush University Medical Center, priority 2015, published 2018)
Entries after “also recorded” stand apart in the source; their conditions may differ. Counter-ions that a name gives are not always drawn.

Key:
suPAR [1] = assay: Circulating and urinary suPAR levels (ELISA) in proteinuric animal models; type: in vivo, mouse
Protocol: (§1) Detection of circulating and urinary suPAR levels Mouse suPAR levels from plasma (and/or serum) and urine were evaluated by enzyme-linked immunosorbent assay (ELISA) kit (R&D systems) following the manufacturer's protocol.
(§2) Proteinuric animal models. i) LPS injected mice. Proteinuria was induced with single injection of LPS as described previously (Wei et al., 2008; Wei et al.,). Briefly, mice were injected with LPS (Sigma) i.p at a dose of 10 mg per kg body weight. The mice injected with PBS were used as a control. Twenty-four hours after LPS treatment, urine and blood samples were collected and kidney, femurs, and tibias were harvested from the sacrificed mice.
ii) Pod-Rac1, Inducible EGFP_CA-Rac1 transgenic mice. EGFP_CA-Rac1 transgenic mice were crossed to Nphs1-rtTA (NEF-rtTA) inducer mice to generate double transgenic (dTG, NEF×Rac1) mice. Male mice were used in this study. To induce transgene expression, regular chow was replaced with doxycycline (DOX)-supplemented chow (2,000 ppm; TestDiet). Single transgenic (EGFP_CA-Rac1) mice were used as a control. Twelve days after DOX diet, urine and blood samples were collected and kidney, femurs, and tibias were harvested from the sacrificed mice. Hi) Adiamycin (ADR) injected mice: Proteinuria was induced with single injection of ADR as described previously. […]

BM myeloid cells = assay: Flow cytometric analysis of BM cells (uPAR, Gr-1, Sca-1) in proteinuric animal models; type: in vivo, mouse
Protocol: as §2
ii) Pod-Rac1, Inducible EGFP_CA-Rac1 transgenic mice. EGFP_CA-Rac1 transgenic mice were crossed to Nphs1-rtTA (NEF-rtTA) inducer mice to generate double transgenic (dTG, NEF×Rac1) mice. Male mice were used in this study. To induce transgene expression, regular chow was replaced with doxycycline (DOX)-supplemented chow (2,000 ppm; TestDiet). Single transgenic (EGFP_CA-Rac1) mice were used as a control. Twelve days after DOX diet, urine and blood samples were collected and kidney, femurs, and tibias were harvested from the sacrificed mice. Hi) Adiamycin (ADR) injected mice: Proteinuria was induced with single injection of ADR as described previously. (Wang et al.) Briefly, male BALB/c mice were injected with ADR (Doxorubicin Hydrochloride, Sigma) via the tail vein at a dose of 11 mg per kg body weight. Six days after ADR injection, urine and blood samples were collected and kidney, femurs, and tibias were harvested from the sacrificed mice. iv) TGF β1 transgenic mice: The transgenic mice that express an active form of TGF β1 under the control of murine albumin promoter developed proteinuria as described previously (Kopp et al.). Since the transgene is on the Y chromosome, male mice (<4-week-old) with severe phenotype were used. Littermate female mice were used as a control. v) Nephrotoxic serum (NTS) nephritis model: Proteinuria was induced by injection of NTS as described previously (Kistler et al.). Briefly, male C57BL6 mice were injected i.p with sheep anti-rabbit glomerular basement membrane antibody at a dose of 500 mg per kg body weight on consecutive days. The mice injected PBS were used as a control. Seven days after injection, urine and blood samples were collected and kidney, femurs, and tibias were harvested from the sacrificed mice. vi) BTBR ob/ob diabetic nephropathy (DN) model: The mouse strain BTBR with the ob/ob leptin-deficiency mutation developed severe type 2 diabetes with heavy proteinuria as described previously (Hudkins et al.). Wild-type (BTBR ob^+/+), heterozygous (BTBR ob^+/−), and homozygous (BTBR ob^−/−) mice were obtained by mating heterozygous (BTBR ob^+/−) mice. For DN model, 16-week-old homozygotes (BTBR ob^−/−) were used. Wild-type (BTBR ob^+/+) or heterozygote (BTBR ob^+/−) littermates were used as controls.
Purification of mouse PBLs and BMCs. To collect blood, mice were anesthetized, then the blood was drawn from posterior vena cava into acid-citrate-dextrose (ACD, Sigma) solution-containing 1 ml syringe. After lysis of red blood cells (RBCs), blood leukocytes were washed and counted. For BMCs purification, femurs and tibias were taken and flushed with a syringe filled with Hank's balanced salt solution (HBSS, Life Technologies) containing 0.1% bovine serum albumin and 20 mM HEPES (pH 7.4). […]
Flow cytometric analysis. […] And the cells were labeled for 30 minutes on ice with fluorescence-conjugated antibodies: Gr-1-allophycocyanin (APC), uPAR-phycoerythrin (PE), Sca-1-fluorescein isothiocyanate (FITC), c-kit-APC, and irrelevant IgG isotype control antibodies. […]

LPS-challenged mice = assay: LPS-induced proteinuria after pretreatment, albumin creatinine ratio (ACR); type: in vivo, mouse; settings: agent given prior to LPS challenge; urine 24 hours after LPS; compared to LPS alone / isotype control
Protocol: (§3) Albumin creatinine ratio (ACR) measurement Mouse urine samples were collected and urinary albumin and creatinine were measured by mouse albumin ELISA (Bethyl Labs), and creatinine assay (Cayman chemical) kits according to manufacturers' protocols. The ratio of urinary albumin to creatinine was then calculated.
as §2
In vivo depletion. Anti-Ly6G monoclonal antibody (1A8, BioXcell) or control rat IgG2a antibody (2A3, BioXcell) was injected i.p into mice (500 μg per mouse) 48 hours and 1 hour prior to LPS injection. Neutrophil depletion was confirmed by flow cytometric analysis.
(§4) Treatment of granulocyte colony stimulating factor (G-CSF). Recombinant mouse G-CSF (Shenandoah Biotechology INC) was administrated by daily i.p injection into BALB/c mice at a dose of 4 μg per 20 g body weight for 2 consecutive days. Blood cell counts were determined using a Hemavet 950FS (Drew Scientific).
Treatment of plerixafor. […]

BM cells = assay: in vitro LPS stimulation on isolated BM cells; type: cell-based, mouse; settings: LPS 0.1, 1 and 10 μg/ml, 24-hour incubation, dose-dependent
Protocol: in vitro LPS stimulation on isolated BM cells. The BM cells were isolated from C57BL6 WT mice and treated with PBS or various concentrations of LPS (0.1, 1, and 10 μg/ml). Following 24-hour-incubation at 37 C in a CO2 incubator (5%), the cells and culture supernatants were collected. The cells were stained for uPAR, Sca-1, and Gr-1. The in vitro induction of uPAR+Sca-1^loGr-1^lo cells in total BM cells was determined by triple color-flow cytometric analysis. The culture supernatants were used for suPAR measurement.

NSG mice = assay: Proteinuria (ACR) in LPS injected NSG mice; type: in vivo, mouse; settings: LPS vs PBS, 24 hours after LPS administration
Protocol: as §3, §2

suPAR [2] = assay: Plasma suPAR levels (ELISA) in pretreated LPS-challenged mice; type: in vivo, mouse; settings: G-CSF for two consecutive days prior to LPS; 24 hours after LPS; compared to LPS alone
Protocol: as §1, §2, §4

[3] = ADR-induced nephropathy, male BALB/c, 11 mg per kg tail vein, six days after injection

Molecule: COc1cccc2c1C(=O)c1c(O)c3c(c(O)c1C2=O)C[C@@](O)(C(=O)CO)C[C@@H]3O[C@H]1C[C@H](N)[C@H](O)[C@H](C)O1 [ADR, Doxorubicin Hydrochloride]
- suPAR levels in the circulation or urine (suPAR [1]; [3]): did not find elevated suPAR levels
- percentage of Gr-1^lo myeloid cells in BM (BM myeloid cells; [3]): no significant increase

Molecule: c1cc(CN2CCCNCCNCCCNCC2)ccc1CN1CCCNCCNCCCNCC1 [plerixafor, Plerixafor]
- proteinuria (ACR) (LPS-challenged mice): did not enhance proteinuria

Molecule: lipopolysaccharide [LPS]
- expansion of uPAR-expressing MPCs (uPAR+Sca-1^lo Gr-1^lo cells in total BM cells) (BM cells): stimulated the expansion of uPAR-expressing MPCs
- suPAR secretion into the culture medium (BM cells; suPAR ELISA): stimulated
- suPAR levels in blood and urine (suPAR [1]; NSG mice, LPS vs PBS, 24 hours after LPS administration): elevated suPAR levels in both blood and urine; also recorded: enhanced blood suPAR levels
- proteinuria (ACR) (NSG mice): resulting in proteinuria; also recorded: caused proteinuria
- uPAR-expressing Sca-1/Gr-1^lo BM cell population (myeloid progenitor cells) (BM myeloid cells; LPS vs PBS injected mice, 24 hours): increased uPAR-expressing BM cell population; also recorded: increased the population of Sca-1^+Gr-1^lo myeloid progenitor cells
- uPAR expression on BM myeloid cells (not peripheral blood myeloid cells) (BM myeloid cells; LPS-treated vs PBS-treated mice): elevated levels of uPAR; also recorded: increased uPAR expression
- uPAR expression on BM myeloid cells (BM myeloid cells; NSG mice, LPS vs PBS): increased uPAR expression on BM myeloid cells
- Gr-1^lo cells in BM (percentage; ratio to Gr-1^hi) (BM myeloid cells; WT mice, LPS vs PBS, 24 hours): significant increase; also recorded: markedly increased ratio

B1: G-CSF: Recombinant mouse G-CSF (Shenandoah Biotechology INC) (protein, UniProt P09920 31-208, looked up)
Granulocyte …: VPLVTVSALPPSLPLPRSFLLKSLEQVRKIQASGSVLLEQLCATYKLCHPEELVLLGHSLGIPKASLSGCSSQALQQTQCLSQLHSGLCLYQGLLQALSGISPALAPTLDLLQLDVANFATTIWQQMENLGVAPTVQPTQSAMPAFTSAFQRRAGGVLAISYLQGFLETARLALHHLA
- plasma suPAR levels (suPAR [2]): increased plasma suPAR levels; also recorded: enhanced plasma suPAR levels
- proteinuria (ACR) (LPS-challenged mice): accelerated proteinuria
